Source: EP0113632A1, “Process for the preparation of halogen methylates of levallorphane, and peripheral narcotic antagonist pharmaceutical compositions containing them” (SANOFI S.A., priority 1982, dated 1984)

Experiments:
[1] = tested on: effet analgésique de la morphine; test: Hot plate test: antagonism of the analgesic effect of morphine; format: in vivo, souris; conditions: for ED50: Mus musculus, sc, read-out: Antagonisme à l'effet analgésique DI50a; for ED50 / Antagonisme à l'effet analgésique DI50a: female mice, s.c. 5 min before morphine 24 mg/kg s.c., hot plate 30 min after morphine, dose inhibiting the effect by 50 %, extrapolated from log dose-response regression, limits in parentheses; for DI50a/DI50c: ratio of DI50 for the analgesic effect (hot plate) to DI50 for the constipating effect (charcoal meal)
Experimental: L'antagonisme à l'effet analgésique de la morphine a été évalué selon le test classique pour l'analgésie de la plaque chauffante (Eddy et Leibach, J. Pharmacol. 1953, 107, 385, modifié par Janseen et Jagenau, J. Pharm. Pharmacol. 1957, 9, 381-400). Ce test est très sensible pour l'action des antogonistes des opiacés.
On utilise des souris femelles de 18 à 22 g. Les substances sont administrées en solution physiologique (20 ml/kg) par voie sous-cutanée 5 minutes avant l'administration de la morphine (24 mg/kg s.c.). Trente minutes après la morphine, on place les animaux sur la plaque chauffante et l'on évalue le temps de réaction des animaux qui présentent la réaction nocicéptive (léchage des pattes).
(§1) L'activité des substances à activité antagoniste périphérique des narcotiques est évaluée sur la base de l'inhibition pour cent de l'effet constipant et de l'effet analgésique de la morphine. La dose qui inhibe de 50 % lesdits effets (DI50c pour l'effet constipant et […] pour l'effet analgésique) a été extrapolée de la droite de régression log dose-réponse en appliquant l'analyse de la variance par régression linéaire.

[2] = tested on: effet constipant de la morphine; test: Charcoal meal intestinal transit test (Green, modified): antagonism of the constipating effect of morphine; format: in vivo, souris; conditions: for ED50: Mus musculus, sc, read-out: Antagonisme à l'effet constipant DI50c; for ED50 / Antagonisme à l'effet constipant DI50c: female mice fasted 20 h, s.c. 5 min before morphine 12 mg/kg s.c. and charcoal meal, sacrifice after 30 min, dose inhibiting the effect by 50 %, extrapolated from log dose-response regression, limits in parentheses
Experimental: L'antagonisme à l'effet constipant de la morphine des halomèthylates de lévallorphan de la présente invention a été évalué selon le test décrit par A.F. Green (Pr. J. Pharmacol. Chemother. 1959, 14, 26), opportunément modifié.
On utilise trois groupes de souris femelles de 20 g environ à jeun depuis 20 heures. A un groupe témoin, on administre par voie orale un repas constitué par 0,2 ml d'un mélange de gomme arabique 5 % (6 ml), farine (2 g) et charbon (1 g). Au deuxième groupe on administre par la voie sous-cutanée 12 mg/kg de morphine et, immédiatement après, le repas au charbon ci-dessus. Le troisième groupe est traité par l'antagoniste sous examen par voie sous-cutanée, puis, après 5 minutes, par 12 mg/kg de morphine par voie sous-cutanée et, tout de suite après, par le repas au charbon. Après trente minutes, les animaux sont sacrifiés pour l'évaluation de la portion intestinale parcourue par le charbon, exprimée en pour cent de la longueur totale de l'intestin grèle.
as §1

SMILES | ED50 [1] [mg/kg] | DI50a/DI50c [1] | ED50 [2] [mg/kg] | Antagonisme à l'effet analgésique DI50a [1] | activité antagoniste, périphérique ou centrale ([2]; conclusion in words, covers both the constipation and the analgesia test) | Antagonisme à l'effet constipant DI50c [2] | activité par rapport à celle du bromoallylate de lévallorphan ([2]; test of antagonism of the constipating effect of morphine, fold higher activity) [fois]
C=CC[N+]1(C)CCC23c4c5ccc(O)c4OC2C(O)C=CC3C1C5 (single isomer, unassigned) [bromométhylate de nalorphine] | 8.6 | 2,32 | 3.7 |  |  |  | 
C=CC[N+]1(C)CC[C@]23CCCC[C@H]2[C@H]1Cc1ccc(O)cc13 (single isomer, unassigned) [iodoallylate de lévorphanol] |  |  |  | 50 mg/kg | inactif | 50 mg/kg | 
C=CC[N+]1(C)CC[C@]23CCCC[C@H]2[C@H]1Cc1ccc(O)cc13 (single isomer, unassigned) [iodométhylate de lévallorphan] | 50 | 6,7 |  |  |  | 7,6 mg/kg (4,5 - 13,0) | > 2
C=CC[N+]1(CC=C)CC[C@]23CCCC[C@H]2[C@H]1Cc1ccc(O)cc13 [bromoallylate de lévallorphan] | 15.2 | 0,97 | 15.6 |  |  |  | 
C=CCN1CC[C@]23c4c5ccc(O)c4O[C@H]2C(=O)CC[C@@]3(O)[C@H]1C5 [naloxone, N-allyl-noroxymorphone] | 0.06 | 0,08 | 0.8 |  |  |  | 
C=CC[N+]1(C)CCC23c4c5ccc(O)c4OC2C(=O)CCC3(O)C1C5.COS(=O)(=O)[O-] (stereo not drawn) [sulfométhylate de naloxone] |  |  |  | 1,6 mg/kg (0,7 - 3,6) |  | 5,8 mg/kg (2,9 - 11,5) | 
